The results in this text go back to PMC5749703, “Isolation and characterization of a novel metagenomic enzyme capable of degrading bacterial phytotoxin toxoflavin” (PLoS ONE, 2018).

For orientation: Km means the substrate concentration at which the rate is half of its maximum.

The subject of this test is T1, TxeA.
T1 construct: no evidence of oligomer
In words: toxoflavin degradation, initial velocities (HPLC). The class given is biochemical, uncultured bacterium. Conditions: pH 5.0, 20°C; Mn2+, DTT and oxygen required (DTT reduces toxoflavin to dihydrotoxoflavin). How it is done:
toxoflavin degradation, initial velocities (HPLC) on TxeA | apparent binding constants of substrate (KM) and catalytic efficiency (kcat/KM) for TxeA were determined

Take `Cn1ncnc2c(=O)n(C)c(=O)nc1-2` [toxoflavin, 1,6-dimethylpyrimido[5,4-e]-1,2,4-triazine-5,7(1H,6H)-dione]: the Km is 14 µM.
